Laboratory results from patent US11655235B2, “Pyrrolidine and piperidine compounds” (YUHAN CORPORATION, priority 2019, dated 2023).
Read-outs that look alike come from different tables or passages of the source.

Columns and labels:
Type in all cases: biochemical
Recombinant human FAP [1] = biological target: T1, Recombinant human FAP (Homo sapiens, UniProt Q12884); assay: FAP inhibition, fluorogenic substrate Z-Gly-Pro-AMC
T1 construct: purchased R&D systems
T1 sequence (Q12884 1-760): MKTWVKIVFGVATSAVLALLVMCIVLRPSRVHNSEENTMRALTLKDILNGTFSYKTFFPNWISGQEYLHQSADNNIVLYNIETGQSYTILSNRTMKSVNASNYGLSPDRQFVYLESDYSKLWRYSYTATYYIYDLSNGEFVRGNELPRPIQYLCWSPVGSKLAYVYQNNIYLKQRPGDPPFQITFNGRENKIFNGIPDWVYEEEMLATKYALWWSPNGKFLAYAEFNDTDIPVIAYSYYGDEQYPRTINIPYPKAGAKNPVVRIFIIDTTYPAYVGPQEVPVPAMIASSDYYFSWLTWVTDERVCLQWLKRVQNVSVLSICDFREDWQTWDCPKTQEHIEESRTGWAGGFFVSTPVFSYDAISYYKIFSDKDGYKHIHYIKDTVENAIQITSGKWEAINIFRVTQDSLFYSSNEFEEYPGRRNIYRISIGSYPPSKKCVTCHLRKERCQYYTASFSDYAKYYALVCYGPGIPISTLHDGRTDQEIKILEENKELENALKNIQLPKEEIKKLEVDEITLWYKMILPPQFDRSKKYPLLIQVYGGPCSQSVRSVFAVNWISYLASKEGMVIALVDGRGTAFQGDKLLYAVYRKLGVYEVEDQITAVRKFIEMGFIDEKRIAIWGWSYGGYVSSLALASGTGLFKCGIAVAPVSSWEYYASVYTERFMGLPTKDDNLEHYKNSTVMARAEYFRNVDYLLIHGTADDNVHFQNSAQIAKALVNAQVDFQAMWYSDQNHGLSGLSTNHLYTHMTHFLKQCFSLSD
Procedure, shortened: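 Recombinant human FAP, 10 ng per reaction, in 50 mM Tris pH 7.5 with 1 M NaCl and 1 mg/ml BSA at 25° C; substrate Z-Gly-Pro-AMC, ≤0.1% DMSO. AMC fluorescence read at ex 380/em 460 nm; % signal-rate decrease vs no-inhibitor control, 8-point curves fitted to a four-parameter logistic for IC50.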

recombinant human DPP7 = biological target: T2, recombinant human DPP7 (Homo sapiens, UniProt Q9UHL4); assay: DPP7 inhibition, fluorogenic substrate Lys-Pro-AMC
T2 construct: purchased R&D Systems
Description: (§1) The compounds according to the present technology were evaluated in terms of the inhibitory effect on the activity of dipeptidyl peptidases including FAP by using a substrate producing fluorescent substances upon enzymatic decomposition. The test was conducted at 25° C. to get a final reaction volume of 100 μL in a 96 black well plate. […] Briefly, the test compounds were dissolved in dimethyl sulfoxide (DMSO) at a concentration of 20 mM and then subjected to serial dilution, thereby creating an 8 point curve. As for the control group, a 6 point curve created by serial dilution of Talabostat in the same buffer solution was used. Fluorescence intensity was measured using a microplate reader (Flexstation3, Molecular Devices) under the wavelength condition exciting at 380 nm and reading the emission at 460 nm. The inhibitory effect of the test compounds was measured as a decrease (%) in the signal rate as compared to the control group without any inhibitor. Data was fixed to a logistic model with four variables and IC50 value was calculated using GraphPad Prism program. As for recombinant human DPP4 (R&D Systems), 25 mM tris (pH 8.0) buffer as a buffer solution and H-Gly-Pro-AMC (Bachem) as a substrate were used. As for recombinant human DPP7 (R&D Systems), 25 mM MES (pH 6.0) buffer as a buffer solution and Lys-Pro-AMC (Bachem) as a substrate were used. As for recombinant human DPP8 (PBS Bioscience), as a buffer solution, a 10 mM tris (pH 7.4) buffer comprising 10 mM of magnesium chloride and 0.05% of Tween 20, and Z-Ala-Pro-AMC (BPS Bioscience) as a substrate were used. As for recombinant human DPP9 (R&D Systems), a 25 mM tris (pH 8.0) buffer as a buffer solution and H-Gly-Pro-AMC (Bachem) as a substrate were used. As for recombinant human PREP (R&D System), as a buffer solution, a 25 mM tris (pH 7.5) buffer comprising 250 mM sodium chloride and 2.5 mM DTT (Dithiolthreitol), and Z-Gly-Pro-AMC (Bachem) as a substrate were used. The evaluation was made by using 10 ng of DPP4, PDD7, and PREP, 20 ng of DPP8, and 50 ng of DPP9 based on the final reaction. In the evaluation of DPP4, the test compounds were subjected to serial dilution in a buffer under the condition containing up to 0.1% of DMSO. In the evaluation of DPP7, DPP8, DPP9, and PREP, the test compounds were subjected to serial dilution in each buffer under the condition containing up to 0.5% of DMSO.

DPP4 = DPP4 (Homo sapiens, UniProt P27487); assay: DPP4 inhibition, fluorogenic substrate H-Gly-Pro-AMC; parameters: purchased R&D Systems
recombinant human DPP9 = biological target: T3, recombinant human DPP9 (Homo sapiens, UniProt Q86TI2); assay: DPP9 inhibition, fluorogenic substrate H-Gly-Pro-AMC; details: at 1 μM
T3 construct: purchased R&D Systems
Description: as §1

Recombinant human FAP [2] = biological target: T1, Recombinant human FAP; assay: FAP FRET assay, FGF21-sequence FRET peptide substrate; details: FRET peptide with human FGF21 sequence, 6 μM, 37° C.
Description: The compounds according to the present technology were evaluated in terms of the inhibitory effect on the activity of dipeptidyl peptidases including FAP by using a substrate producing fluorescent substances upon enzymatic decomposition. The test was conducted at 25° C. to get a final reaction volume of 100 μL in a 96 black well plate. […] Briefly, the test compounds were dissolved in dimethyl sulfoxide (DMSO) at a concentration of 20 mM and then subjected to serial dilution, thereby creating an 8 point curve. As for the control group, a 6 point curve created by serial dilution of Talabostat in the same buffer solution was used. Fluorescence intensity was measured using a microplate reader (Flexstation3, Molecular Devices) under the wavelength condition exciting at 380 nm and reading the emission at 460 nm. The inhibitory effect of the test compounds was measured as a decrease (%) in the signal rate as compared to the control group without any inhibitor. Data was fixed to a logistic model with four variables and IC50 value was calculated using GraphPad Prism program. For the FAP FRET assay, recombinant human FAP (R&D systems) was diluted with 50 mM HEPES (pH 7.2) buffer comprising 150 mM of sodium chloride, 0.1 mg/ml of bovine serum albumin (BSA) and 1 mM EDTA to be 10 ng per final reaction. The test compounds were subjected to serial dilution in a buffer under the condition containing up to 0.1% of DMSO. FRET peptides containing human FGF21 sequence ([…]) conjugated with HyLite Fluor 488 and dark quencher QXL 520 (Anaspec) was used as a substrate. By dissolving in DMSO and then diluting in the same buffer, the substrate was added to be 6 μM per final reaction. All reactions of FRET assay was conducted at 37° C.

[3] = 25° C., Z-Gly-Pro-AMC substrate
[4] = 25° C., H-Gly-Pro-AMC substrate
[5] = recombinant human FAP, substrate Z-Gly-Pro-AMC

Chain of DPP4 (P27487 whole entry): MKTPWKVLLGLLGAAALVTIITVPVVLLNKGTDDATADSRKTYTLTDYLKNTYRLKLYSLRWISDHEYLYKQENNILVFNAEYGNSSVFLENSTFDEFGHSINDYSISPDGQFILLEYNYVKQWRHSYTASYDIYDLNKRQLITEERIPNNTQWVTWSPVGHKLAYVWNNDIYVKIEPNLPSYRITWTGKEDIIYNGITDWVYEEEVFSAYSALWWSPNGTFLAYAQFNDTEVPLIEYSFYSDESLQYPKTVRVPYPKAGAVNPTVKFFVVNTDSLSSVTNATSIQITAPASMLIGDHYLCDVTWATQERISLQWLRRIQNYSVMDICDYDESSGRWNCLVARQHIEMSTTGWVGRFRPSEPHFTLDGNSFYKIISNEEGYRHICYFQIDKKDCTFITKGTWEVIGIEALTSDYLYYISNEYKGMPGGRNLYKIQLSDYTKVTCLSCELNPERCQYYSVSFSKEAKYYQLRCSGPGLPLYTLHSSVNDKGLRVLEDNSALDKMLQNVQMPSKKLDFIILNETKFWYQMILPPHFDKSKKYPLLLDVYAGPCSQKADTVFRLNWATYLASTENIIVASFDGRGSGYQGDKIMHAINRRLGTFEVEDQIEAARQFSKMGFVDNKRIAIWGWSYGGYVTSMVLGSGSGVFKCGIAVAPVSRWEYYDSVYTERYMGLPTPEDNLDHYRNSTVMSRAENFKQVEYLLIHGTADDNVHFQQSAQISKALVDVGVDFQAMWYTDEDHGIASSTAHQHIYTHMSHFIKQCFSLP
T3 sequence (Q86TI2 whole entry): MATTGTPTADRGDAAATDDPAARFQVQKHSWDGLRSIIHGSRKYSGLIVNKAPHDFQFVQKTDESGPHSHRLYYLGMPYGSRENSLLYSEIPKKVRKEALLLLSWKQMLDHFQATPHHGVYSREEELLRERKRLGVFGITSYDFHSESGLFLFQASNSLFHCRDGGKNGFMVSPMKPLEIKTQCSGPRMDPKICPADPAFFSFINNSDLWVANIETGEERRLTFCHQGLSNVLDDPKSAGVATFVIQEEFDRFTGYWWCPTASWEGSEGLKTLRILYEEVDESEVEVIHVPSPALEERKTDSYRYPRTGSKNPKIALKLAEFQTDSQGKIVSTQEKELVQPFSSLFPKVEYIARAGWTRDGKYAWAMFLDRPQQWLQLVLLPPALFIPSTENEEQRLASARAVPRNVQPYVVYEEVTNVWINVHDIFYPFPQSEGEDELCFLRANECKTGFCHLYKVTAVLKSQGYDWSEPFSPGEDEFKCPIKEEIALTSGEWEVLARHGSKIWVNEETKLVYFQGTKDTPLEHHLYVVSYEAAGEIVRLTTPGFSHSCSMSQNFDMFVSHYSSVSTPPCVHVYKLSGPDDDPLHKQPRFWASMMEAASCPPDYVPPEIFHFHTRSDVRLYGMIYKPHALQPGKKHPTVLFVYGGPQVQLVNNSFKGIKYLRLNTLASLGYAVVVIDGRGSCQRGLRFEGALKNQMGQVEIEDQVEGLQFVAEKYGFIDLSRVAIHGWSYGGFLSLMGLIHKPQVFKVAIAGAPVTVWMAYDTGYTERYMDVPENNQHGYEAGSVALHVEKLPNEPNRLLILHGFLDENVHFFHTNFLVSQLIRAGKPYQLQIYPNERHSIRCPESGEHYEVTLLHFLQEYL

IC50 (Recombinant human FAP [1]; [3]) [µM] | IC50 (recombinant human DPP7) [µM] | IC50 (DPP4; [4]) [µM] | SMILES | further results
0.0026 | 0.294 | > 1 | N#C[C@@H]1CCCN1C(=O)CN1CC[C@H](Nc2ccnc3ccccc23)C1 [Example 5, (S)-1-(2-((S)-3-(quinolin-4-ylamino)pyrrolidin-1-yl)acetyl)pyrrolidine-2-carbonitrile] | –
0.00308 | 0.951 | > 1 | N#C[C@@H]1CCCN1C(=O)CN1CC[C@H](Nc2cncc3ccoc23)C1 [Example 23, (S)-1-(2-((S)-3-(furo[3,2-c]pyridin-7-ylamino)pyrrolidin-1-yl)acetyl)pyrrolidine-2-carbonitrile] | –
0.0077 | 2.2 | – | COc1ccc2occ(C(=O)N[C@H]3CCN(CC(=O)N4CCC[C@H]4C#N)C3)c2c1 [Example 46, N—((S)-1-(2-((S)-2-cyanopyrrolidin-1-yl)-2-oxoethyl)pyrrolidin-3-yl)-5-methoxybenzofuran-3-carboxamide] | inhibition at 1 µM (DPP4; read-out: hDPP4 inhibition % at 1 μM): 1.4%
0.0215 | 1.15 | > 1 | N#C[C@@H]1CCCN1C(=O)CN1CC[C@H](Oc2ccnc3ccccc23)C1 [Example 61, (S)-1-(2-((S)-3-(quinolin-4-yloxy)pyrrolidin-1-yl)acetyl)pyrrolidine-2-carbonitrile] | –
0.00548 | 6.39 | > 1 | N#C[C@@H]1CCCN1C(=O)CN1CC[C@H](Oc2cccc3ncccc23)C1 [Example 66, (S)-1-(2-((S)-3-(quinolin-5-yloxy)pyrrolidin-1-yl)acetyl)pyrrolidine-2-carbonitrile] | –
0.0033 | 4.74 | > 1 | N#C[C@@H]1CCCN1C(=O)CN1CC[C@H](Oc2ccnc3c(C(F)(F)F)cccc23)C1 [Example 95, (S)-1-(2-((S)-3-((8-(trifluoromethyl)quinolin-4-yl)oxy)pyrrolidin-1-yl)acetyl)pyrrolidine-2-carbonitrile] | DPP9 inhibition % at 1 μM (recombinant human DPP9): No inhibition**
0.0022 | 0.499 | > 1 | N#C[C@@H]1CCCN1C(=O)CN1CCC(Nc2cccc3ncccc23)CC1 [Example 110, (S)-1-(2-(4-(quinolin-5-ylamino)piperidin-1-yl)acetyl)pyrrolidine-2-carbonitrile] | –
0.00078 | 5.9 | > 10 | COc1ccc2nccc(OC3CCN(CC(=O)N4C[C@@H](F)C[C@H]4C#N)CC3)c2c1 [Example 128, (2S,4S)-4-fluoro-1-(2-(4-((6-methoxyquinolin-4-yl)oxy)piperidin-1-yl)acetyl)pyrrolidine-2-carbonitrile] | –
0.0034 | 3.12 | – | COc1ccc2cc(N(C)[C@H]3CCN(CC(=O)N4CCC[C@H]4C#N)C3)cnc2c1 [Example 153, (S)-1-(2-((S)-3-((7-methoxyquinolin-3-yl)(methyl)amino)pyrrolidin-1-yl)acetyl)pyrrolidine-2-carbonitrile] | –
– | – | – | N#C[C@@H]1CCCN1C(=O)CN1CC[C@@H](Nc2ccc3nc(Cl)ccc3c2)C1 [Example 206, (2S)-1-[2-[(3R)-3-[(2-chloro-6-quinolyl)amino]pyrrolidin-1-yl]acetyl]pyrrolidine-2-carbonitrile] | IC50 (Recombinant human FAP [2]): 0.0328 µM
– | – | – | N#C[C@@H]1C[C@H](F)CN1C(=O)CN1CC[C@@H](Nc2ccc3nc(Cl)ccc3c2)C1 [Example 207, (2S,4S)-4-fluoro-1-[2-[(3R)-3-[(2-chloro-6-quinolyl)amino]pyrrolidin-1-yl]acetyl]pyrrolidine-2-carbonitrile] | IC50 (Recombinant human FAP [2]): 0.0179 µM
– | – | – | N#C[C@@H]1C[C@H](F)CN1C(=O)CN1CC[C@H](Nc2ccc3cccnc3c2)C1 [Example 251, (2S,4S)-4-fluoro-1-[2-[(3S)-3-(7-quinolylamino)pyrrolidin-1-yl]acetyl]pyrrolidine-2-carbonitrile] | IC50 (Recombinant human FAP [1]; [5]): 0.0031 µM; IC50 (recombinant human DPP7; recombinant human DPP7): 0.199 µM; IC50 (DPP4; recombinant human DPP4): 2.31 µM
– | – | – | CN(c1cc2ccccc2cn1)C1CCN(CC(=O)N2CCC[C@H]2C#N)CC1 [Example 321, (2S)-1-[2-[4-[3-isoquinolyl(methyl)amino]-1-piperidyl]acetyl]pyrrolidine-2-carbonitrile] | IC50 (Recombinant human FAP [1]; [5]): 0.0088 µM; IC50 (recombinant human DPP7; recombinant human DPP7): 10.5 µM; IC50 (DPP4; recombinant human DPP4): > 10 µM
– | – | – | N#C[C@@H]1C[C@H](F)CN1C(=O)CN1CCC(Nc2cccc3nc[nH]c23)CC1 [Example 384, (2S,4S)-1-[2-[4-(3H-benzimidazol-4-ylamino)-1-piperidyl]acetyl]-4-fluoro-pyrrolidine-2-carbonitrile] | IC50 (Recombinant human FAP [2]): 0.0749 µM
– | – | – | N#C[C@@H]1C[C@H](F)CN1C(=O)CN1CCC(Nc2cc(Cl)nc(N3CCOCC3)c2)CC1 [Example 385, (2S,4S)-1-[2-[4-[(2-chloro-6-morpholino-4-pyridyl)amino]-1-piperidyl]acetyl]-4-fluoro-pyrrolidine-2-carbonitrile] | IC50 (Recombinant human FAP [2]): 0.0774 µM
– | – | – | N#C[C@@H]1C[C@H](F)CN1C(=O)CN1CCC(Nc2cccc3ncc(C(F)(F)F)cc23)CC1 [Example 386, (2S,4S)-4-fluoro-1-[2-[4-[[3-(trifluoromethyl)-5-quinolyl]amino]-1-piperidyl]acetyl]pyrrolidine-2-carbonitrile] | IC50 (Recombinant human FAP [2]): 0.0198 µM
– | – | – | N#C[C@@H]1C[C@H](F)CN1C(=O)CN1CCC(Oc2ccc(Cl)c3ncccc23)CC1 [Example 418, (2S,4S)-1-[2-[4-[(8-chloro-5-quinolyl)oxy]-1-piperidyl]acetyl]-4-fluoro-pyrrolidine-2-carbonitrile] | IC50 (Recombinant human FAP [1]; [5]): 0.0037 µM; IC50 (DPP4; recombinant human DPP4): 4.67 µM
